{
  "source": "paper PMC9146942",
  "about": "(International Journal of Molecular Sciences, 2022)",
  "key": {"[1]": {"system": "transduced Dubca cells overexpressing human Panx1", "settings": "dromedary camel"}, "[2]": {"settings": "cited from earlier work"}, "human Panx1 channels": {"biological_target": "T1, human Panx1 channels (Homo sapiens, UniProt Q96RD7)", "T1 construct": "expressed in transfected cells; host or cells: Dubca cells, transduced, stably overexpressing human Panx1", "T1 sequence (Q96RD7 whole entry)": "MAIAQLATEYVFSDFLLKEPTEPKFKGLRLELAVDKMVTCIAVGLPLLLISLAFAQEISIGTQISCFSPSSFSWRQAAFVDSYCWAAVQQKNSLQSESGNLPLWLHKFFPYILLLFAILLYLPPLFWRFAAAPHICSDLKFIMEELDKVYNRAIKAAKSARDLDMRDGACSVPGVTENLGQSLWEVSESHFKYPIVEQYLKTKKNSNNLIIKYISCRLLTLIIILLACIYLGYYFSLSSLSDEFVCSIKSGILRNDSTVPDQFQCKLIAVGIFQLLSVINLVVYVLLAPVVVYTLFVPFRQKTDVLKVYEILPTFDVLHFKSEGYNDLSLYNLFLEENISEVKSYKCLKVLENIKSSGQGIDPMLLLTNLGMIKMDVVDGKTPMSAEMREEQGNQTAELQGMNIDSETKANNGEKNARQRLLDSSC", "assay": "Panx1 channel activity assay (extracellular ATP release after osmotic shock)", "format": "cell-based", "settings": "for Effect on extracellular ATP release / Panx1 channel activity (in words): 45 min exposure, six concentrations BC/10 to BCx10; for Concentration with significant inhibition of Panx1 channel activity (extracellular ATP release): 45 min exposure (15 min preincubation + 30 min osmotic buffer), combination given as final lopinavir concentration"}, "Panx1 protein expression": {"system": "Panx1 protein expression", "assay": "Panx1 protein expression by immunoblot analysis", "format": "cell-based, human", "settings": "24 h exposure, BC, BC/2, BC/10; total Panx1 and glycosylated isoforms"}, "Panx1 mRNA expression": {"system": "Panx1 mRNA expression", "assay": "Panx1 mRNA expression by RT-qPCR analysis", "format": "cell-based, human", "settings": "24 h exposure, BC, BC/2, BC/10"}, "[3]": {"system": "transduced Dubca cells overexpressing human Panx1", "assay": "Cell viability (MTT) assay, 24 h exposure, for CC10 determination", "settings": "sigmoidal curve fit"}, "[4]": {"assay": "Cell viability (MTT) assay, 45 min exposure in classic buffer", "settings": "dromedary camel, transduced Dubca cells overexpressing human Panx1"}, "[5]": {"settings": "maximum plasma concentration extracted from literature and recalculated to µM, reference per cell"}},
  "note": "Entries after “also recorded” stand apart in the source; their conditions may differ. Read-outs that look alike come from different tables or passages of the source.",
  "data": [
    {"smiles": "CCC(CC)COC(=O)[C@H](C)N[P@](=O)(OC[C@H]1O[C@@](C#N)(c2ccc3c(N)ncnn23)[C@H](O)[C@@H]1O)Oc1ccccc1", "note": "[Remdesivir]", "values": [
      {"measurement": "CC10 (concentration inducing 10% of cell death)", "setting": "[1]", "result": ">100", "unit": "µM"},
      {"measurement": "Cmax", "setting": "[2]; [5]", "result": 9.03, "unit": "µM"},
      {"measurement": "Effect on extracellular ATP release / Panx1 channel activity (in words)", "setting": "human Panx1 channels", "result": "comparable concentration-dependent trend"}
    ]},
    {"smiles": "Cc1cccc(C)c1OCC(=O)N[C@@H](Cc1ccccc1)[C@@H](O)C[C@H](Cc1ccccc1)NC(=O)[C@H](C(C)C)N1CCCNC1=O", "note": "[Lopinavir, lopinavir]", "values": [
      {"measurement": "Effect on Panx1 protein levels", "setting": "Panx1 protein expression", "result": "without affecting mRNA or protein levels"},
      {"measurement": "Effect on Panx1 mRNA levels", "setting": "Panx1 mRNA expression", "result": "without affecting mRNA or protein levels"},
      {"measurement": "Concentration with significant inhibition of Panx1 channel activity (extracellular ATP release)", "setting": "human Panx1 channels", "result": 85, "unit": "µM"},
      {"measurement": "Effect on extracellular ATP release / Panx1 channel activity (in words)", "setting": "human Panx1 channels", "result": "significant decrease in extracellular ATP release; also recorded: inhibit Panx1 channel activity"},
      {"measurement": "CC10 (concentration inducing 10% of cell death)", "setting": "[3]", "result": 17, "unit": "µM"}
    ]},
    {"smiles": "CC[C@H]1OC(=O)[C@H](C)[C@@H](O[C@H]2C[C@@](C)(OC)[C@@H](O)[C@H](C)O2)[C@H](C)[C@@H](O[C@@H]2O[C@H](C)C[C@H](N(C)C)[C@H]2O)[C@](C)(O)C[C@@H](C)CN(C)[C@H](C)[C@@H](O)[C@]1(C)O", "note": "[Azithromycin (dihydrate), azithromycin dihydrate]", "values": [
      {"measurement": "viability at 45 min, 590 µM", "setting": "[4]", "result": 74, "unit": "%"},
      {"measurement": "Cmax", "setting": "[2]; [5]", "result": 0.52, "unit": "µM"},
      {"measurement": "CC10 (concentration inducing 10% of cell death)", "setting": "[3]", "result": 59, "unit": "µM"}
    ]},
    {"smiles": "CC(C)c1nc(CN(C)C(=O)N[C@H](C(=O)N[C@@H](Cc2ccccc2)C[C@H](O)[C@H](Cc2ccccc2)NC(=O)OCc2cncs2)C(C)C)cs1", "note": "[Ritonavir, ritonavir]", "values": [
      {"measurement": "Cmax", "setting": "[2]; [5]", "result": 22.5, "unit": "µM"},
      {"measurement": "Effect on extracellular ATP release / Panx1 channel activity (in words)", "setting": "human Panx1 channels", "result": "did not decrease extracellular ATP release"},
      {"measurement": "CC10 (concentration inducing 10% of cell death)", "setting": "[3]", "result": 12, "unit": "µM"}
    ]},
    {"smiles": "CCN(CC)CCCC(C)Nc1ccnc2cc(Cl)ccc12", "note": "(stereo not drawn) [Chloroquine (diphosphate), chloroquine diphosphate]", "values": [
      {"measurement": "CC10 (concentration inducing 10% of cell death)", "setting": "[1]", "result": 18, "unit": "µM"},
      {"measurement": "Cmax", "setting": "[2]; [5]", "result": 0.81, "unit": "µM"}
    ]},
    {"smiles": "NC(=O)c1nc(F)c[nH]c1=O", "note": "[Favipiravir, favipiravir]", "values": [
      {"measurement": "Effect on Panx1 protein levels", "setting": "Panx1 protein expression", "result": "without affecting mRNA or protein levels"},
      {"measurement": "Effect on Panx1 mRNA levels", "setting": "Panx1 mRNA expression", "result": "without affecting mRNA or protein levels"},
      {"measurement": "Cmax", "setting": "[2]; in vivo", "result": 53.4, "unit": "µM"},
      {"measurement": "Effect on extracellular ATP release / Panx1 channel activity (in words)", "setting": "human Panx1 channels", "result": "significant decrease in extracellular ATP release; also recorded: inhibit Panx1 channel activity"},
      {"measurement": "CC10 (concentration inducing 10% of cell death)", "setting": "[3]", "result": ">200", "unit": "µM"}
    ]},
    {"smiles": "CCN(CCO)CCCC(C)Nc1ccnc2cc(Cl)ccc12", "note": "(stereo not drawn) [Hydroxychloroquine (sulphate), hydroxychloroquine sulphate]", "values": [
      {"measurement": "Effect on Panx1 protein levels", "setting": "Panx1 protein expression", "result": "without affecting mRNA or protein levels"},
      {"measurement": "Effect on Panx1 mRNA levels", "setting": "Panx1 mRNA expression", "result": "without affecting mRNA or protein levels"},
      {"measurement": "Cmax", "setting": "[2]; [5]", "result": 0.97, "unit": "µM"},
      {"measurement": "Concentration with significant inhibition of Panx1 channel activity (extracellular ATP release)", "setting": "human Panx1 channels", "result": 23, "unit": "µM"},
      {"measurement": "Effect on extracellular ATP release / Panx1 channel activity (in words)", "setting": "human Panx1 channels; listed as hydroxychloroquine", "result": "inhibit Panx1 channel activity"},
      {"measurement": "Effect on extracellular ATP release / Panx1 channel activity (in words)", "setting": "human Panx1 channels; listed as hydroxychloroquine sulphate", "result": "significant decrease in extracellular ATP release"},
      {"measurement": "CC10 (concentration inducing 10% of cell death)", "setting": "[3]", "result": 23, "unit": "µM"}
    ]},
    {"smiles": "C[C@@H]1C[C@H]2[C@@H]3CCC4=CC(=O)C=C[C@]4(C)[C@@]3(F)[C@@H](O)C[C@]2(C)[C@@]1(O)C(=O)CO", "note": "[Dexamethasone, dexamethasone]", "values": [
      {"measurement": "CC10 (concentration inducing 10% of cell death)", "setting": "[1]", "result": ">200", "unit": "µM"},
      {"measurement": "Cmax", "setting": "[2]; [5]", "result": 0.63, "unit": "µM"}
    ]}
  ]
}
